# Source: patent US10953027B2, “Active agents and methods of their use for the treatment of metabolic disorders and nonalcoholic fatty liver disease” (Flagship Pioneering Innovations V, Inc., priority 2018, dated 2021)
# Test: Assay 1. Stability in Simulated Gastric Fluid (SGF)
# Assay type: in vitro ADME
# Conditions: 1 μM, 37° C., SGF pH 1.6 with pepsin
# Method: Assay 1. Stability of acylated active agents in Simulated Gastric Fluid (SGF). This assay was used to assess the stability of an acylated active agent in a stomach.
# Medium was prepared by dissolving 2 g of sodium chloride in 0.6 L of ultrapure water (MilliQ®, Millipore Sigma, Darmstadt, Germany). The pH was adjusted to 1.6 with 1N hydrochloric acid, and the volume was then adjusted to 1 L with purified water.
# 60 mg FaSSIF powder (Biorelevant™, London, UK) were dissolved in 500 mL buffer (above). Pepsin was added (0.1 mg/mL) (Millipore Sigma, Darmstadt, Germany), and the solution was stirred. The resulting SGF media were used fresh for each experiment.
# Test compounds were dissolved in DMSO stock to 1 mM. An aliquot of the DMSO stock solution was removed and diluted in the SGF Media in 15 mL falcon tubes to generate a compound concentration of 1 μM. A 1 mL aliquot was immediately removed and diluted once with 1 volume of acetonitrile for T0 timepoint. The mixture was sealed and mixed at 37° C. in an incubator. Aliquots (1 mL) were removed at regular intervals and immediately quenched by the addition of 1 volume of acetonitrile. The resulting samples were analyzed by LC/MS to determine degradation rates in SGF.
row,SMILES,Assay 1 (SGF) (% Remaining @ 1 hours)
1,"CC(=O)Oc1cc(OC(C)=O)c2c(=O)c(OC(C)=O)c(-c3cc(OC(C)=O)c(OC(C)=O)c(OC(C)=O)c3)oc2c1 [Compound 23, [3,5-diacetoxy-4-oxo-2-(3,4,5-triacetoxyphenyl)chromen-7-yl] acetate]",C (C: >75% of the tested compound remaining)
2,"CCC(=O)O[C@H]1[C@H](OC(=O)CC)[C@H](OC(=O)/C=C/c2c[nH]c3ccccc23)O[C@@H](C)[C@H]1OC(=O)CC [Compound 148, (2S,3S,4R,5R,6S)-6-methyl-3,4,5-tris(propanoyloxy)oxan-2-yl (2E)-3-(1H-indol-3-yl)prop-2-enoate]",C (C: >75% of the tested compound remaining)
3,"CC(=O)OC[C@H]1O[C@@H](Oc2c(C)c(C)c3c(c2C)CC[C@@](C)(CCC[C@H](C)CCC[C@H](C)CCCC(C)C)O3)[C@H](OC(C)=O)[C@@H](OC(C)=O)[C@@H]1OC(C)=O [Compound 63, [(2R,3R,4S,5R,6S)-3,4,5-triacetoxy-6-[(2R)-2,5,7,8-tetramethyl-2-[(4R,8R)-4,8,12-trimethyltridecyl]chroman-6-yl]oxy-tetrahydropyran-2-yl]methyl Acetate]",C (C: >75% of the tested compound remaining)
4,"CCCC(=O)Oc1cc(OC(=O)CCC)c2c(=O)cc(-c3ccc(OC(=O)CCC)c(OC(=O)CCC)c3)oc2c1 [Compound 202, 2-[3,4-bis(butanoyloxy)phenyl]-5-(butanoyloxy)-4-oxo-4H-chromen-7-yl Butanoate]",C (C: >75% of the tested compound remaining)
5,"CCCC(=O)OCC1(OC(=O)CCC)OC[C@@H](OC(=O)CCC)[C@H](OC(=O)CCC)[C@@H]1OC(=O)CCC (stereo partly drawn) [Compound 163, [(3S,4S,5R)-2,3,4,5-tetrakis(butanoyloxy)oxan-2-yl]methyl Butanoate]",C (C: >75% of the tested compound remaining)
6,"CC(=O)Oc1ccc([C@@H]2CC(=O)c3c(OC(C)=O)cc(OC(C)=O)cc3O2)cc1 [Compound 21, (S)-2-(4-acetoxyphenyl)-4-oxochromane-5,7-diyl Diacetate]",C (C: >75% of the tested compound remaining)
7,"C[C@@H]1CCOC(C(=O)Oc2ccc(/C=C/c3cc(OC(=O)C4OCC[C@@H](C)O4)cc(OC(=O)C4OCC[C@@H](C)O4)c3)cc2)O1 (stereo partly drawn) [Compound 258, 3-[(4R)-4-methyl-1,3-dioxane-2-carbonyloxy]-5-[(1E)-2-{4-[(4R)-4-methyl-1,3-dioxane-2-carbonyloxy]phenyl}ethenyl]phenyl (4R)-4-methyl-1,3-dioxane-2-carboxylate]",A (A: <25% of the tested compound remaining)
8,"CCC(=O)O[C@@H]1OC[C@H](OC(=O)CC)[C@H](OC(=O)CC)[C@H]1OC(=O)CC [Compound 160, (2S,3R,4S,5S)-3,4,5-tris(propanoyloxy)oxan-2-yl Propanoate]",C (C: >75% of the tested compound remaining)
9,"CCCCCCCC(=O)Oc1ccc(/C=C/c2cc(OC(=O)CCCCCCC)cc(OC(=O)CCCCCCC)c2)cc1 [Compound 11, [4-[(E)-2-[3,5-di(octanoyloxy)phenyl]vinyl]phenyl] octanoate]",C (C: >75% of the tested compound remaining)
10,"CCCCCCCCCC(=O)Oc1ccc(/C=C/c2cc(OC(=O)CCCCCCCCC)cc(OC(=O)CCCCCCCCC)c2)cc1 [Compound 12, [4-[(E)-2-[3,5-di(decanoyloxy)phenyl]vinyl]phenyl] decanoate]",C (C: >75% of the tested compound remaining)
11,"C[C@@H]1CCO[C@H](C(=O)Oc2ccc(/C=C/c3cc(O)cc(OC(=O)[C@H]4OCC[C@@H](C)O4)c3)cc2)O1 [Compound 256, 4-[(1E)-2-{3-hydroxy-5-[(2S,4R)-4-methyl-1,3-dioxane-2-carbonyloxy]phenyl}ethenyl]phenyl (2S,4R)-4-methyl-1,3-dioxane-2-carboxylate]",A (A: <25% of the tested compound remaining)
12,"CCC(=O)O[C@@H]1[C@@H](OC(=O)CC)[C@@H](OC(=O)CCc2c[nH]c3ccccc23)OC[C@H]1OC(=O)CC [Compound 108, (2R,3R,4S,5R)-3,4,5-tris(propanoyloxy)oxan-2-yl 3-(1H-indol-3-yl)propanoate]",C (C: >75% of the tested compound remaining)

# Test: Assay 2. Stability in Simulated Intestinal Fluid (SIF)
# Assay type: in vitro ADME
# Conditions: 1 μM, 37° C., SIF pH 6.7 with pancreatin
# Method: Assay 2. Stability of acylated active agents in Simulated Intestinal Fluid (SIF). This assay was used to assess the stability of an acylated active agent in a small intestine.
# Phosphate buffer was prepared by dissolving 0.42 g of sodium hydroxide pellets and 3.95 g of monobasic sodium phosphate monohydrate and 6.19 g of sodium chloride in ultrapure water (MilliQ®, Millipore Sigma, Darmstadt, Germany). The pH was adjusted to 6.7 using aq. HCl and aq. NaOH, as necessary, and the solution was diluted with ultrapure water to produce 1 L of the pH 6.7 buffer.
# 112 mg FaSSIF powder (Biorelevant™, London, UK) was dissolved in 50 mL of the pH 6.7 buffer. 2 to 3 mL of the resulting solution were then added to 500 mg pancreatin (Millipore Sigma, Darmstadt, Germany). The resulting mixture was agitated by finger tapping the vessel containing the mixture until milky suspension formed. At this time, the remainder of the 50 mL FaSSiF/pH 6.7 buffer solution was added. The resulting suspension was flipped upside down 10 times to produce SIF, which was used fresh.
# Test compounds were dissolved in DMSO stock to 1 mM. An aliquot of the DMSO stock solution was removed and diluted in the SIF media in 15 mL falcon tubes to produce a mixture with a tested compound concentration of 1 μM. A 1 mL aliquot was immediately removed and diluted once with 1 volume of acetonitrile for T0 timepoint. The mixture was sealed and agitated at 37° C. in an incubator. Aliquots (1 mL) were removed at regular intervals and immediately quenched by the addition of 1 volume of acetonitrile. The resulting samples were analyzed by LC/MS to determine degradation rates.
row,SMILES,Assay 2 (SIF) (% @ Remaining 4 hours)
1,"CC(=O)Oc1cc(OC(C)=O)c2c(=O)c(OC(C)=O)c(-c3cc(OC(C)=O)c(OC(C)=O)c(OC(C)=O)c3)oc2c1 [Compound 23, [3,5-diacetoxy-4-oxo-2-(3,4,5-triacetoxyphenyl)chromen-7-yl] acetate]",A (A: <25% of the tested compound remaining)
2,"CCCC(=O)O[C@H]1OC[C@@H](OC(=O)CCC)[C@H](OC(=O)CCC)[C@H]1OC(=O)CCC [Compound 191, (2R,3R,4S,5R)-3,4,5-tris(butanoyloxy)oxan-2-yl Butanoate]",C (C: >75% of the tested compound remaining)
3,"CC(=O)OC[C@H]1O[C@@H](Oc2c(C)c(C)c3c(c2C)CC[C@@](C)(CCC[C@H](C)CCC[C@H](C)CCCC(C)C)O3)[C@H](OC(C)=O)[C@@H](OC(C)=O)[C@@H]1OC(C)=O [Compound 63, [(2R,3R,4S,5R,6S)-3,4,5-triacetoxy-6-[(2R)-2,5,7,8-tetramethyl-2-[(4R,8R)-4,8,12-trimethyltridecyl]chroman-6-yl]oxy-tetrahydropyran-2-yl]methyl Acetate]",C (C: >75% of the tested compound remaining)
4,"CCCC(=O)Oc1cc(OC(=O)CCC)c2c(=O)cc(-c3ccc(OC(=O)CCC)c(OC(=O)CCC)c3)oc2c1 [Compound 202, 2-[3,4-bis(butanoyloxy)phenyl]-5-(butanoyloxy)-4-oxo-4H-chromen-7-yl Butanoate]",A (A: <25% of the tested compound remaining)
5,"CC(=O)Oc1ccc([C@@H]2CC(=O)c3c(OC(C)=O)cc(OC(C)=O)cc3O2)cc1 [Compound 21, (S)-2-(4-acetoxyphenyl)-4-oxochromane-5,7-diyl Diacetate]",A (A: <25% of the tested compound remaining)
6,"CCCC(=O)O[C@@H]1[C@@H](OC(=O)CCC)[C@@H](Oc2ccc(N)cc2C(=O)O)OC[C@H]1OC(=O)CCC [Compound 204, 5-amino-2-[(2R,3R,4S,5R)-3,4,5-tri(butanoyloxy)tetrahydropyran-2-yl]oxy-benzoic Acid]",B (B: 25-75% of the tested compound remaining)
7,"C[C@@H]1O[C@H](OC(=O)Cc2c[nH]c3ccccc23)[C@H](OC(=O)Cc2c[nH]c3ccccc23)[C@H](OC(=O)Cc2c[nH]c3ccccc23)[C@H]1OC(=O)Cc1c[nH]c2ccccc12 [Compound 153, (2R,3R,4R,5S,6S)-3,4,5-tris({[2-(1H-indol-3-yl)acetyl]oxy})-6-methyloxan-2-yl 2-(1H-indol-3-yl)acetate]",A (A: <25% of the tested compound remaining)
8,"O=C(Cc1c[nH]c2ccccc12)O[C@@H]1OC[C@@H](OC(=O)Cc2c[nH]c3ccccc23)[C@@H](OC(=O)Cc2c[nH]c3ccccc23)[C@H]1OC(=O)Cc1c[nH]c2ccccc12 [Compound 172, (2S,3R,4R,5R)-3,4,5-tris({[2-(1H-indol-3-yl)acetyl]oxy})oxan-2-yl 2-(1H-indol-3-yl)acetate]",C (C: >75% of the tested compound remaining)
9,"CCCC(=O)Nc1ccc(O[C@@H]2OC[C@@H](OC(=O)CCC)[C@H](OC(=O)CCC)[C@H]2OC(=O)CCC)c(C(=O)O)c1 [Compound 229, 5-butanamido-2-{[(2S,3R,4S,5R)-3,4,5-tris(butanoyloxy)oxan-2-yl]oxy}benzoic Acid]",A (A: <25% of the tested compound remaining)
10,"C[C@@H]1O[C@@H](OC(=O)Cc2c[nH]c3ccccc23)[C@H](OC(=O)Cc2c[nH]c3ccccc23)[C@H](OC(=O)Cc2c[nH]c3ccccc23)[C@H]1OC(=O)Cc1c[nH]c2ccccc12 [Compound 154, (2S,3R,4R,5S,6S)-3,4,5-tris({[2-(1H-indol-3-yl)acetyl]oxy})-6-methyloxan-2-yl 2-(1H-indol-3-yl)acetate]",A (A: <25% of the tested compound remaining)
11,"CCCC(=O)O[C@@H]1[C@@H](OC(=O)CCC)[C@@H](Oc2ccc(N)cc2C(=O)O)OC[C@@H]1OC(=O)CCC [Compound 42, 5-amino-2-[(2R,3R,4S,5S)-3,4,5-tri(butanoyloxy)tetrahydropyran-2-yl]oxy-benzoic Acid]",C (C: >75% of the tested compound remaining)
12,"CCCC(=O)O[C@H]1O[C@@H](C)[C@H](OC(=O)CCC)[C@@H](OC(=O)CCC)[C@H]1OC(=O)CCC [Compound 151, (2R,3R,4R,5S,6S)-3,4,5-tris(butanoyloxy)-6-methyloxan-2-yl Butanoate]",A (A: <25% of the tested compound remaining)
13,"O=C(CCCc1ccccc1)Oc1ccc(/C=C/c2cc(OC(=O)CCCc3ccccc3)cc(OC(=O)CCCc3ccccc3)c2)cc1 [Compound 2, [4-[(E)-2-[3,5-bis(4-phenylbutanoyloxy)phenyl]vinyl]phenyl] 4-phenylbutanoate]",C (C: >75% of the tested compound remaining)
14,"CCCC(=O)O[C@@H]1O[C@@H](C)[C@H](OC(=O)CCC)[C@@H](OC(=O)CCC)[C@H]1OC(=O)CCC [Compound 152, (2S,3R,4R,5S,6S)-3,4,5-tris(butanoyloxy)-6-methyloxan-2-yl Butanoate]",A (A: <25% of the tested compound remaining)
